Laboratory results: patent US7772271B2 (priority 2004, dated 2010)

Row | Compound | melting point
1 | CCOc1ccc2c(C#N)c(-c3ccc(S(=O)(=O)N4CCC[C@@H]4CO)cc3)n(C3CCC3)c2c1 [Compound 2690] | 170 to 172 °C
2 | C[C@@H](OC(=O)Nc1ccc(-c2c(C#N)c3ccc(OCCCS(C)(=O)=O)cc3n2C2CCC2)cc1)C1CC1 [Compound 2694] | 155 to 160 °C
3 | C[C@@H](OC(=O)Nc1ccc(-c2c(C#N)c3ccc(OC4CCOCC4)cc3n2C2CCC2)cc1)C1CC1 [Compound 2696] | 126 to 128 °C
4 | CC(C)OC(=O)Nc1ccc(-c2c(C#N)c3ccc(OCCSc4ccccn4)cc3n2C2CCC2)cc1 [Compound 2697] | 145 to 146 °C
5 | CC(C)OC(=O)Nc1ccc(-c2c(C#N)c3ccc(OCCSc4ncccn4)cc3n2C2CCC2)cc1 [Compound 2698] | 69 to 72 °C
6 | Cc1nnc(SCCOc2ccc3c(C#N)c(-c4ccc(NC(=O)OC(C)C)cc4)n(C4CCC4)c3c2)s1 [Compound 2699] | 150 to 151 °C
7 | CSCCOc1ccc2c(C#N)c(-c3ccc(NC(=O)OC(C)C)cc3)n(C3CCC3)c2c1 [Compound 2700] | 132 to 133 °C
8 | COCCOc1ccc2c(C#N)c(-c3ccc(NC(=O)O[C@H](C)C4CC4)cc3)n(C3CCC3)c2c1 [Compound 2702] | 116 to 117 °C
9 | C[C@@H](OC(=O)Nc1ccc(-c2c(C#N)c3ccc(O[C@H]4CCOC4)cc3n2C2CCC2)cc1)C1CC1 [Compound 2703] | 166 to 168 °C
10 | CCOc1ccc2c(C#N)c(-c3ccc(NC(=O)O[C@H](C)c4ccncc4)cc3)n(C3CCC3)c2c1 [Compound 2705] | 180 to 183 °C
11 | CCOc1ccc2c(C#N)c(-c3ccc(NC(=O)O[C@@H](C)c4ccncc4)cc3)n(C3CCC3)c2c1 [Compound 2706] | 180 to 183 °C
12 | CC(OC(=O)Nc1ccc(-c2c(C#N)c3ccc(Oc4ncccn4)cc3n2C2CCC2)cc1)C(F)(F)F (centres unmarked) [Compound 2707] | 211 to 213 °C
13 | CC(OC(=O)Nc1ccc(-c2c(C#N)c3ccc(Oc4ncccn4)cc3n2C2CCC2)cc1)c1ccc(F)cc1 (centres unmarked) [Compound 2708] | 200 to 202 °C
14 | N#Cc1c(-c2ccc(NC(=O)OC(c3ccccc3)C(F)(F)F)cc2)n(C2CCC2)c2cc(Oc3ncccn3)ccc12 (centres unmarked) [Compound 2709] | 246 to 248 °C
15 | CC(NC(=O)Nc1ccc(-c2c(C#N)c3ccc(Oc4ncccn4)cc3n2C2CCC2)cc1)c1ccc(F)cc1 (centres unmarked) [Compound 2710] | 240 to 242 °C
16 | COCCOc1ccc2c(C#N)c(-c3ccc(NC(=O)O[C@H](C)C4CC4)cc3)n(C3CC3)c2c1 [Compound 2711] | 157 to 159 °C
17 | C[C@@H](OC(=O)Nc1ccc(-c2c(C#N)c3ccc(OC4CCOCC4)cc3n2C2CC2)cc1)C1CC1 [Compound 2712] | 149 to 151 °C
18 | CCSc1ccc2c(C#N)c(-c3ccc(NC(=O)OC(C)C)cc3)n(C3CCC3)c2c1 [Compound 2713] | 150 to 152 °C
19 | CC[S+]([O-])c1ccc2c(C#N)c(-c3ccc(NC(=O)OC(C)C)cc3)n(C3CCC3)c2c1 (centres unmarked) [Compound 2714] | 165 to 168 °C
20 | Cc1nccc(Oc2ccc3c(C#N)c(-c4ccc(NC(=O)O[C@H](C)C5CC5)cc4)n(C4CC4)c3c2)n1 [Compound 2715] | 123 to 125 °C

Row | Compound | melting point
21 | C[C@@H](OC(=O)Nc1ccc(-c2c(C#N)c3ccc(Oc4ncccn4)cc3n2C2CCC2)cc1)c1ccc(F)cc1 [Compound 2716] | 173 to 175 °C
22 | COCCOc1ccc2c(C#N)c(-c3ccc(NC(=O)OC(C)(C)C(F)(F)F)cc3)n(C(C)C)c2c1 [Compound 2718] | 188 to 191 °C
23 | COCCOc1ccc2c(C#N)c(-c3ccc(NC(=O)O[C@H](C)C4CC4)cc3)n(C(C)C)c2c1 [Compound 2719] | 88 to 100 °C
24 | C[C@@H](OC(=O)Nc1ccc(-c2c(C#N)c3cc(OCCCn4ccnc4)ccc3n2C2CCC2)cc1)C1CC1 [Compound 2723] | 182 to 184 °C
25 | N#Cc1c(-c2ccc(NC(=O)OCc3ccccc3)cc2)n(C2CCC2)c2ccc(OCCCn3ccnc3)cc12 [Compound 2726] | 229 to 231 °C
26 | CC(C)NC(=O)Nc1ccc(-c2c(C#N)c3cc(OCCCn4ccnc4)ccc3n2C2CCC2)cc1 [Compound 2727] | 232 to 234 °C
27 | CC(OC(=O)Nc1ccc(-c2c(C#N)c3cc(OCCCn4cncn4)ccc3n2C2CCC2)cc1)C1CCC1 (centres unmarked) [Compound 2730] | 149 to 150 °C
28 | N#Cc1c(-c2ccc(NC(=O)OCc3ccccc3)cc2)n(C2CCC2)c2ccc(OCCCn3cncn3)cc12 [Compound 2732] | 215 to 217 °C
29 | C[C@H](OC(=O)Nc1ccc(-c2c(C#N)c3cc(OCCCn4cncn4)ccc3n2C2CCC2)cc1)c1ccccc1 [Compound 2733] | 206 to 208 °C
30 | C[C@@H](OC(=O)Nc1ccc(-c2c(C#N)c3cc(OCCCn4cncn4)ccc3n2C2CCC2)cc1)c1ccccc1 [Compound 2734] | 206 to 208 °C
31 | COc1ccnc(Oc2ccc3c(C#N)c(-c4ccc(NC(=O)O[C@H](C)C5CC5)cc4)n(C4CCC4)c3c2)n1 [Compound 2736] | 161 to 164 °C
32 | COc1ccnc(Oc2ccc3c(C#N)c(-c4ccc(NC(=O)OC(C)C)cc4)n(C4CCC4)c3c2)n1 [Compound 2739] | 179 to 183 °C
33 | CC(C)n1c(-c2ccc(NC(=O)O[C@H](C)C3CC3)cc2)c(C#N)c2ccc(OC3CCOCC3)cc21 [Compound 2741] | 208 to 210 °C
34 | CC(C)n1c(-c2ccc(NC(=O)O[C@H](C)C3CC3)cc2)c(C#N)c2ccc(O[C@H]3CCOC3)cc21 [Compound 2742] | 189 to 192 °C
35 | CC(C)n1c(-c2ccc(NC(=O)O[C@H](C)C3CC3)cc2)c(C#N)c2ccc(O[C@@H]3CCOC3)cc21 [Compound 2743] | 151 to 153 °C
36 | CCOP(=O)(Nc1ccc(-c2c(C#N)c3ccc(OC4CCOCC4)cc3n2C2CCC2)cc1)OCC [Compound 2744] | 195 to 197 °C
37 | CCS(=O)(=O)Nc1ccc(-c2c(C#N)c3ccc(OC4CCOCC4)cc3n2C2CCC2)cc1 [Compound 2745] | 207 to 209 °C
38 | CCCS(=O)(=O)Nc1ccc(-c2c(C#N)c3ccc(OC4CCOCC4)cc3n2C2CCC2)cc1 [Compound 2746] | 185 to 187 °C
39 | N#Cc1c(-c2ccc(NS(=O)(=O)C3CC3)cc2)n(C2CCC2)c2cc(OC3CCOCC3)ccc12 [Compound 2747] | 202 to 204 °C

The remaining lines, values ahead:

Row | melting point | Compound
40 | 211 to 213 °C | CC(C)S(=O)(=O)Nc1ccc(-c2c(C#N)c3ccc(OC4CCOCC4)cc3n2C2CCC2)cc1 [Compound 2748]
41 | 224 to 226 °C | N#Cc1c(-c2ccc(N3CCCS3(=O)=O)cc2)n(C2CCC2)c2cc(OC3CCOCC3)ccc12 [Compound 2749]
42 | 221 to 225 °C | COc1ccnc(Oc2ccc3c(C#N)c(-c4ccc(NC(=O)NC(C)C)cc4)n(C4CCC4)c3c2)n1 [Compound 2750]
43 | 136 to 138 °C | CCN(CC)C(=O)c1ccc(-c2c(C#N)c3ccc(OCCOC)cc3n2C2CCC2)cc1 [Compound 2752]
44 | 202 to 204 °C | COCCOc1ccc2c(C#N)c(-c3ccc(C(=O)NC(C)C)cc3)n(C3CCC3)c2c1 [Compound 2753]
45 | 148 to 150 °C | COCCOc1ccc2c(C#N)c(-c3ccc(C(=O)N4CCOCC4)cc3)n(C3CCC3)c2c1 [Compound 2754]
46 | 166 to 168 °C | COCCOc1ccc2c(C#N)c(-c3ccc(C(=O)N4CCC4)cc3)n(C3CCC3)c2c1 [Compound 2755]
47 | 162 to 164 °C | COCCOc1ccc2c(C#N)c(-c3ccc(C(=O)N4CCCC4)cc3)n(C3CCC3)c2c1 [Compound 2756]
48 | 155 to 158 °C | COCCOc1ccc2c(C#N)c(-c3ccc(C(=O)N4CCCCC4)cc3)n(C3CCC3)c2c1 [Compound 2757]
49 | 194 to 196 °C | COCCOc1ccc2c(C#N)c(-c3ccc(C(=O)NC4CCCC4)cc3)n(C3CCC3)c2c1 [Compound 2758]
50 | 199 to 200 °C | COCCOc1ccc2c(C#N)c(-c3ccc(C(=O)NC4CCC4)cc3)n(C3CCC3)c2c1 [Compound 2759]
51 | 228 to 230 °C | COCCOc1ccc2c(C#N)c(-c3ccc(C(=O)NC4CC4)cc3)n(C3CCC3)c2c1 [Compound 2760]
52 | 240 to 245 °C | Cc1nccc(Oc2ccc3c(C#N)c(-c4ccc(NC(=O)NC(C)C)cc4)n(C4CCC4)c3c2)n1 [Compound 2761]
53 | 264 to 269 °C | CC(C)NC(=O)Nc1ccc(-c2c(C#N)c3ccc(Oc4ccc(Cl)nn4)cc3n2C2CCC2)cc1 [Compound 2762]
54 | 218 to 220 °C | CC(C)(C)OC(=O)Nc1ccc(-c2c(C#N)c3ccc(N4CCOCC4)cc3n2C2CCC2)cc1 [Compound 2764]
55 | 99 to 102 °C | N#Cc1c(-c2ccc(NS(=O)(=O)C3CC3)cc2)n(CC2CC2)c2cc(OC3CCOCC3)ccc12 [Compound 2768]
56 | 199 to 203 °C | N#Cc1c(-c2ccc(NS(=O)(=O)C3CC3)cc2)n(C2CCC2)c2ccc(OC3COCOC3)cc12 [Compound 2775]
57 | 183 to 184 °C | CCCS(=O)(=O)Nc1ccc(-c2c(C#N)c3cc(OC4COCOC4)ccc3n2C2CCC2)cc1 [Compound 2776]
58 | 191 °C (dec.) | CC(C)(C)OC(=O)Nc1ccc(-c2c(C#N)c3ccc(N4CCSCC4)cc3n2C2CCC2)cc1 [Compound 2777]
59 | 222 to 225 °C | C[C@@H](OC(=O)Nc1ccc(-c2c(C#N)c3ccc(C(=O)O)cc3n2C2CCC2)cc1)C1CC1 [Compound 2778]
60 | 146 to 150 °C | CCOC(CCOc1ccc2c(C#N)c(-c3ccc(NC(=O)OC(C)C)cc3)n(C3CCC3)c2c1)OCC [Compound 2779]
61 | 155 to 156 °C | CCNC(=O)Oc1ccc(-c2c(C#N)c3ccc(OC4CCOCC4)cc3n2CC2CC2)cc1 [Compound 2780]
62 | 147 to 148 °C | CCCNC(=O)Oc1ccc(-c2c(C#N)c3ccc(OC4CCOCC4)cc3n2CC2CC2)cc1 [Compound 2781]
63 | 161 to 163 °C | CC(C)NC(=O)Oc1ccc(-c2c(C#N)c3ccc(OC4CCOCC4)cc3n2CC2CC2)cc1 [Compound 2782]
64 | 146 to 147 °C | CCCCNC(=O)Oc1ccc(-c2c(C#N)c3ccc(OC4CCOCC4)cc3n2CC2CC2)cc1 [Compound 2783]
65 | 169 to 171 °C | N#Cc1c(-c2ccc(OC(=O)NC3CCCC3)cc2)n(CC2CC2)c2cc(OC3CCOCC3)ccc12 [Compound 2784]
